The values that follow come from ChEMBL document CHEMBL4813994, “Discovery of novel and potent PARP/PI3K dual inhibitors for the treatment of cancer” (Eur J Med Chem, 2021).

Experiment [1] addresses Poly [ADP-ribose] polymerase 1 (Homo sapiens, UniProt P09874). Nature of the experiment: Inhibition of PARP1 (unknown origin) using biotin-NAD+ as substrate incubated for 1 hr by ELISA.
The target of experiment [2] is Phosphatidylinositol 4,5-bisphosphate 3-kinase catalytic subunit alpha isoform (Homo sapiens, UniProt P42336). Nature of the experiment: Inhibition of PI3Kalpha (unknown origin) using PIP2 as substrate measured after 40 mins by ADP-glo plus luminescence assay.
The test system of experiment [3] is MDA-MB-231. Nature of the experiment: Antiproliferative activity against human BRCA proficient MDA-MB-231 cells assessed as reduction in cell growth incubated for 7 days by cell titer-glo assay. It is filed as functional, cell-based. To be noted: MDA-MB-231, 168 h.
Experiment [4] concerns HCC1937. Nature of the experiment: Antiproliferative activity against human BRCA-1 deficient HCC1937 cells assessed as reduction in cell growth incubated for 7 days by cell titer-glo assay. It is filed as functional, cell-based. The note with it: HCC1937, 168 h.
The test system of experiment [5] is MDA-MB-468. Nature of the experiment: Antiproliferative activity against human BRCA proficient MDA-MB-468 cells assessed as reduction in cell growth incubated for 7 days by cell titer-glo assay. It is filed as functional, cell-based. To be noted: MDA-MB-468, 168 h.
In experiment [6] the test system is SW-620. Nature of the experiment: Antiproliferative activity against human BRCA-2 proficient SW-620 cells assessed as reduction in cell growth incubated for 7 days by cell titer-glo assay. It is filed as functional, cell-based. To be noted: SW-620, 168 h.
The subject of experiment [7] is HCT-116. Nature of the experiment: Antiproliferative activity against human BRCA-2 deficient HCT-116 cells assessed as reduction in cell growth incubated for 7 days by cell titer-glo assay. The note with it: HCT-116, 168 h. It is filed as functional, cell-based.
Experiment [8] addresses Phosphatidylinositol 4,5-bisphosphate 3-kinase catalytic subunit beta isoform (Homo sapiens, UniProt P42338). Nature of the experiment: Inhibition of PI3Kbeta (unknown origin) using PIP2 as substrate measured after 1 hr by ADP-glo plus luminescence assay.
The target of experiment [9] is RAC-alpha serine/threonine-protein kinase (Homo sapiens, UniProt P31749). Nature of the experiment: Inhibition of AKT (unknown origin).
The target in experiment [10] is T1, Phosphatidylinositol 4,5-bisphosphate 3-kinase catalytic subunit delta isoform (Homo sapiens, UniProt O00329).
T1 sequence (O00329 whole entry): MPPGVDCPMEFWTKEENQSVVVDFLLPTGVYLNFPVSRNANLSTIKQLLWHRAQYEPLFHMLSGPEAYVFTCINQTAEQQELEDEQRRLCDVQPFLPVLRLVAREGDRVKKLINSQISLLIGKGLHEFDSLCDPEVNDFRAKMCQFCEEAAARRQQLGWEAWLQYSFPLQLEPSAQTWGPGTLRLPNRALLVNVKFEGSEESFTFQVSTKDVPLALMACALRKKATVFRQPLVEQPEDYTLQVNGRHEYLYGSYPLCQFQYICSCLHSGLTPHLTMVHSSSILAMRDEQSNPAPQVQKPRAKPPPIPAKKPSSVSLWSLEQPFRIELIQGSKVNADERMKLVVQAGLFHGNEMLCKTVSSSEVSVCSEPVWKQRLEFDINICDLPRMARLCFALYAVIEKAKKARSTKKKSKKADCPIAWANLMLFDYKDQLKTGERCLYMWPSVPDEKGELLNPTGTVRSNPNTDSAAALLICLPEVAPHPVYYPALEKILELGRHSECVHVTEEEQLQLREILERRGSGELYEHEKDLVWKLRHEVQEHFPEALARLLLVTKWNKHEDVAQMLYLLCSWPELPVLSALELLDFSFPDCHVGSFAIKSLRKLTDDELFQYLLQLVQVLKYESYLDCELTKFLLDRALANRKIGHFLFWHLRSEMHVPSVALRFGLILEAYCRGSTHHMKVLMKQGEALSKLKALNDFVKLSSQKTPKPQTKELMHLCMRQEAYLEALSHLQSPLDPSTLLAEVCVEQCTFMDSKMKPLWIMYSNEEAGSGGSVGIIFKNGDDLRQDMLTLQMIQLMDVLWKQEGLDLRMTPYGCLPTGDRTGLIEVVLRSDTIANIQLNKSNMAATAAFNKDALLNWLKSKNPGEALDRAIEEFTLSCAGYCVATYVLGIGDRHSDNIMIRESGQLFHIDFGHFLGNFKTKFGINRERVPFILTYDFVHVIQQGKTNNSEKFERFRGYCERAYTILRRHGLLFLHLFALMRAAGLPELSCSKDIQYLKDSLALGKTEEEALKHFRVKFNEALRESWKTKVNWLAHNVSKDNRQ
Nature of the experiment: Inhibition of PI3Kdelta (unknown origin) using PIP2 as substrate measured after 2 hrs by ADP-glo plus luminescence assay.

The test system of experiment [11] is MDA-MB-468. Nature of the experiment: Antitumor activity against human MDA-MB-468 cells xenografted in BALB/c mouse assessed as tumor growth inhibition at 20 mg/kg, ip once daily administered for 32 days relative to control. It is filed as functional. The note with it: MDA-MB-468, ip, 768 h, time 32 day, read-out: TGI.
Experiment [12] has as its target Serine/threonine-protein kinase mTOR (Homo sapiens, UniProt P42345). Nature of the experiment: Inhibition of mTOR (unknown origin).
For experiment [13], the target named is Phosphatidylinositol 4,5-bisphosphate 3-kinase catalytic subunit gamma isoform (Homo sapiens, UniProt P48736). Nature of the experiment: Inhibition of PI3Kgamma (unknown origin) using PIP2 as substrate measured after 1 hr by ADP-glo plus luminescence assay.
Experiment [14] addresses Poly [ADP-ribose] polymerase 2 (Homo sapiens, UniProt Q9UGN5). Nature of the experiment: Inhibition of PARP2 (unknown origin) using biotin-NAD+ as substrate incubated for 1 hr by ELISA.
In experiment [15] the target is Voltage-gated inwardly rectifying potassium channel KCNH2 (Homo sapiens, UniProt Q12809). Nature of the experiment: Inhibition of human ERG.
Experiment [16] concerns MDA-MB-468. Nature of the experiment: Antitumor activity against human MDA-MB-468 cells xenografted in BALB/c mouse assessed as tumor growth inhibition at 27.5 mg/kg, ip once daily administered for 32 days relative to control. It is filed as functional. To be noted: MDA-MB-468, ip, 768 h, time 32 day, read-out: TGI.
Experiment [17] concerns MDA-MB-468. Nature of the experiment: Antitumor activity against human MDA-MB-468 cells xenografted in BALB/c mouse assessed as tumor growth inhibition at 27.5 mg/kg, ip administered for 32 days along with olaparib relative to control. It is filed as functional. To be noted: MDA-MB-468, ip, 768 h, time 32 day, read-out: TGI.

Bounds are passed on as bounds.

Chain of Phosphatidylinositol 4,5-bisphosphate 3-kinase catalytic subunit gamma isoform (P48736 whole entry, canonical isoform): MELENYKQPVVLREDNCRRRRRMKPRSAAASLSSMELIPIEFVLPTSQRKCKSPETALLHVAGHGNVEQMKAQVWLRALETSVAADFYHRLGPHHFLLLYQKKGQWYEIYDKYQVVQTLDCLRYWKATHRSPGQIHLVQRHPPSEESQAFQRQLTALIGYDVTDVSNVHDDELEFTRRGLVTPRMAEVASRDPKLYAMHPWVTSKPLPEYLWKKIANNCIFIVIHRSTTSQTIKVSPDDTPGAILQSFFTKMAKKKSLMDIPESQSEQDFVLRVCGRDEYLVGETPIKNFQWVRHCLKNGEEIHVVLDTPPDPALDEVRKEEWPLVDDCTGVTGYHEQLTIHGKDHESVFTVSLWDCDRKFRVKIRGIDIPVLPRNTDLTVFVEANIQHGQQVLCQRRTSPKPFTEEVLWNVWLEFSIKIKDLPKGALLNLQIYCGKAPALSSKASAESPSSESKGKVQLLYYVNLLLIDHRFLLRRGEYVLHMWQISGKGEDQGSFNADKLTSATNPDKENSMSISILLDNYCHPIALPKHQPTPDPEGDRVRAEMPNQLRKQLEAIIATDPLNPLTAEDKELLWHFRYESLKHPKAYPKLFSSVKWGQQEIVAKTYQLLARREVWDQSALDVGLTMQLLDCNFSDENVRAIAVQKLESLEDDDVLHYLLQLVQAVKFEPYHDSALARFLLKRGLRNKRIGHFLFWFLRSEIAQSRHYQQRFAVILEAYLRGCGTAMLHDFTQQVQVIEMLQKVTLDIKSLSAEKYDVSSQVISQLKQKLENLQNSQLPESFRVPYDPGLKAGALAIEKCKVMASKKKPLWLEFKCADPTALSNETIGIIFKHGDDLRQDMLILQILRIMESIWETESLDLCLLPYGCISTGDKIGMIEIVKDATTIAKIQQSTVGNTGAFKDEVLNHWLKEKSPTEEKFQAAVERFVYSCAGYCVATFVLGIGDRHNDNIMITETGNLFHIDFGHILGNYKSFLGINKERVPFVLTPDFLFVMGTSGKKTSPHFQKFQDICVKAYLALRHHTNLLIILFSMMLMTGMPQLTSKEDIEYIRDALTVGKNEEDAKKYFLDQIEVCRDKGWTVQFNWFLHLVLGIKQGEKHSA
Chain of Phosphatidylinositol 4,5-bisphosphate 3-kinase catalytic subunit beta isoform (P42338 whole entry, canonical isoform): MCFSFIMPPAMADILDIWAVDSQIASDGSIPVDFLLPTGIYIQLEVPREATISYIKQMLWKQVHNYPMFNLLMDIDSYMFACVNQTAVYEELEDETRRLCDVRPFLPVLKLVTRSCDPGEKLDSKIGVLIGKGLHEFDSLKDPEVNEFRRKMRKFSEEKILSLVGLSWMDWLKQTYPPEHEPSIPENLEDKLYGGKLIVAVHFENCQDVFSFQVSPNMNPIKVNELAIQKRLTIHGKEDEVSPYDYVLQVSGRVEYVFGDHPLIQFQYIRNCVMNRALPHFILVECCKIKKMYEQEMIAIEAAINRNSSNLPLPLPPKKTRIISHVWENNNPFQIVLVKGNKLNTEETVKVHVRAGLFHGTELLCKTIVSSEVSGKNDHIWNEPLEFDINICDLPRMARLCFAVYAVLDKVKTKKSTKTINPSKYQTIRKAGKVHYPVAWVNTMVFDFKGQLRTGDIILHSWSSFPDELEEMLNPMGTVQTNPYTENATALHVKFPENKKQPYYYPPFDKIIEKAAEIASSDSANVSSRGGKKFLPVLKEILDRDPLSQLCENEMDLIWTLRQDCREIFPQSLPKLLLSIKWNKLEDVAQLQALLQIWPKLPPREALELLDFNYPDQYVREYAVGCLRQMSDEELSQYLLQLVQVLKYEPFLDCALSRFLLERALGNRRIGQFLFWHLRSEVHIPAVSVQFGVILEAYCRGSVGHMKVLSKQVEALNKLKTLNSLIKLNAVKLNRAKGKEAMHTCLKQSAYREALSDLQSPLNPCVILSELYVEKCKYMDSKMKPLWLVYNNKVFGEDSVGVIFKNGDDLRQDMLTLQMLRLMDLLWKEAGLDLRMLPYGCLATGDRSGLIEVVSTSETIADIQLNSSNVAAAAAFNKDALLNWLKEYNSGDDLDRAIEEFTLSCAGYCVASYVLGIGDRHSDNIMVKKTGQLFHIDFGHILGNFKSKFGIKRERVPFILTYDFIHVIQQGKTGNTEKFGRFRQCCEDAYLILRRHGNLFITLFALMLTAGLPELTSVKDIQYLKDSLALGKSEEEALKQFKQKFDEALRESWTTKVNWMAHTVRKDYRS
Chain of Poly [ADP-ribose] polymerase 1 (P09874 whole entry, canonical isoform): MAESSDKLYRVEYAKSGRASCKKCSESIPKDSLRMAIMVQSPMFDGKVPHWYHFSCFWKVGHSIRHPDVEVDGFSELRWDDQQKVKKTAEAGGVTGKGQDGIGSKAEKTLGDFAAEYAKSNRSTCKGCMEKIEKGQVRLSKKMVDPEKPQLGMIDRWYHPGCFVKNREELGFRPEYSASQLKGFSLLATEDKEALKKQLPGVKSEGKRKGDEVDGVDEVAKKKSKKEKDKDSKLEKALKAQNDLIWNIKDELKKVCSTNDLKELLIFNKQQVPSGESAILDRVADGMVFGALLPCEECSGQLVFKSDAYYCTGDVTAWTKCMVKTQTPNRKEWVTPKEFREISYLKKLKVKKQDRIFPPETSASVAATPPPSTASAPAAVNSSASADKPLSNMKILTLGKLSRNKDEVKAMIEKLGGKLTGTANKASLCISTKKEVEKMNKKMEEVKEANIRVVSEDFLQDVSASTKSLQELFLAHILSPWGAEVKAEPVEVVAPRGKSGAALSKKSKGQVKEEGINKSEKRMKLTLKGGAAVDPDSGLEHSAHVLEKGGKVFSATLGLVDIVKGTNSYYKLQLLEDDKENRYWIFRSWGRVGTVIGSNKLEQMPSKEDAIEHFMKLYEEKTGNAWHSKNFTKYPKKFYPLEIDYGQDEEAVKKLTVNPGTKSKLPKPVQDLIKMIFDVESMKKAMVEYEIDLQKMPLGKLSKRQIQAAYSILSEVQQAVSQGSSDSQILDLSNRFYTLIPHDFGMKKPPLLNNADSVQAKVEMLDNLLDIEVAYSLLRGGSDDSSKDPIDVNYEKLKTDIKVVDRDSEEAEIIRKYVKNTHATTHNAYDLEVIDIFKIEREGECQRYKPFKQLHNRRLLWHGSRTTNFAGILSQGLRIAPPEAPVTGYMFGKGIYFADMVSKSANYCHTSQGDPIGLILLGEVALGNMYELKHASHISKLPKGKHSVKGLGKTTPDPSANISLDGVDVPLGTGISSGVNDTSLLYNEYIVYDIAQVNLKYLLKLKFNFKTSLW
Chain of Phosphatidylinositol 4,5-bisphosphate 3-kinase catalytic subunit alpha isoform (P42336 whole entry, canonical isoform): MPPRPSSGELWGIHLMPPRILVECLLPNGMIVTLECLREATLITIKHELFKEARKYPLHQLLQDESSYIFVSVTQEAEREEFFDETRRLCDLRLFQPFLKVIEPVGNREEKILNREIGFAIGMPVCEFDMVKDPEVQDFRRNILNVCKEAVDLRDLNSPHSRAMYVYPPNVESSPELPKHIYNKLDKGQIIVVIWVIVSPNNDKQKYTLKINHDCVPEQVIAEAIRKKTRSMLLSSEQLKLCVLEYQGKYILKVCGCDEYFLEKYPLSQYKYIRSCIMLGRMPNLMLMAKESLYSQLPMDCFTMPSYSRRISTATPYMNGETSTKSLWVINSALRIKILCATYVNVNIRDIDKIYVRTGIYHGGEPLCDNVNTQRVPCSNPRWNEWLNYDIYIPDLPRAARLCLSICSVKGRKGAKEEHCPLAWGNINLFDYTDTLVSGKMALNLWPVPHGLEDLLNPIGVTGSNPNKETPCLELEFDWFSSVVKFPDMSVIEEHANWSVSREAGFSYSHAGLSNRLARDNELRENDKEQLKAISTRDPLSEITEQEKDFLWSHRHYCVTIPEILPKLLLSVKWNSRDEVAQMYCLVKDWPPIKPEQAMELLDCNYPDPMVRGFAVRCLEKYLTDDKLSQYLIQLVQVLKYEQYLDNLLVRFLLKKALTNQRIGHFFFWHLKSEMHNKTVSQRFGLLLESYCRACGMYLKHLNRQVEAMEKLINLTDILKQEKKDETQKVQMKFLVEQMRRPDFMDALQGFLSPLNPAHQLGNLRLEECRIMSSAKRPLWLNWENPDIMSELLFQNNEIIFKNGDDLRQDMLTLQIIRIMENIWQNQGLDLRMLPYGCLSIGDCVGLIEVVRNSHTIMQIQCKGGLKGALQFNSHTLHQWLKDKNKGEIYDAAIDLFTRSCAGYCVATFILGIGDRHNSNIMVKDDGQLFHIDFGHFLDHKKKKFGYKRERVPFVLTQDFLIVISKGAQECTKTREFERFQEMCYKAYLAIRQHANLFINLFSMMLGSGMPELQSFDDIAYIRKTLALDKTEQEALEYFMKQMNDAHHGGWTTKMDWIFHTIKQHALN
Chain of Poly [ADP-ribose] polymerase 2 (Q9UGN5 whole entry): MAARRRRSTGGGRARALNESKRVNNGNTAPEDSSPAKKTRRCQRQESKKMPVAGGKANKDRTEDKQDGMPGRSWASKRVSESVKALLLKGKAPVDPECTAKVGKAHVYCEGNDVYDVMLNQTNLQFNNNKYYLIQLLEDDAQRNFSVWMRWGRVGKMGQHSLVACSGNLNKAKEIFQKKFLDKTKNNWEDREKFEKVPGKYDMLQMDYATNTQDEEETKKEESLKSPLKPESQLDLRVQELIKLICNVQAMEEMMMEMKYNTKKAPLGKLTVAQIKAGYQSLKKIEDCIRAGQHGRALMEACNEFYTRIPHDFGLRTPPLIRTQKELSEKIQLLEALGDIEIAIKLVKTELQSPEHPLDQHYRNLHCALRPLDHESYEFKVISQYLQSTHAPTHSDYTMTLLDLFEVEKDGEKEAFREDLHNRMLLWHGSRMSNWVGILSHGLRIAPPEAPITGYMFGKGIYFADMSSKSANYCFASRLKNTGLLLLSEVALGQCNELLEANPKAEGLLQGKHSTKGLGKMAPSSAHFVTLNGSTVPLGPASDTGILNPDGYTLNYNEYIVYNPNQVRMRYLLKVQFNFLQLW

As for `Cc1c(CN2CCN(C(=O)c3cc4cccc(C(N)=O)c4o3)CC2)sc2c(N3CCOCC3)nc(-c3ccc4[nH]ccc4c3)nc12`, in experiment [1], the IC50 worked out at 31.7 nM.

For `Nc1ncc(-c2nc(N3CCOCC3)c3sc(CN4CCN(C(=O)c5cc(Cc6n[nH]c(=O)c7ccccc67)ccc5F)CC4)cc3n2)cn1`, the IC50 in experiment [1] is 8.8 nM; in [2], 3.7 nM.

Turning to `Cc1c(CN2CCN(C(=O)c3cc4cccc(C(N)=O)c4o3)CC2)sc2c(N3CCOCC3)nc(-c3cccc4[nH]ccc34)nc12`, the results for the half-inhibitory concentration (IC50) in [1] and in experiment [2] were 140 nM and 1140 nM, respectively.

Regarding `Cc1c(CN2CCN(C(=O)c3cc4cccc(C(N)=O)c4o3)CC2)sc2c(N3CCOCC3)nc(-c3ccc(F)c(N)c3)nc12`, the IC50 in experiment [3] was over 10000 nM; in [4] it was 5380 nM; in experiment [5] it was over 10000 nM; in [1] it was 16.7 nM; in experiment [2] it was 1380 nM; in experiment [6], over 10000 nM. Also, the 50% inhibitory concentration (IC50) in experiment [7] was determined as 5840 nM.

With `Cc1c(CN2CCN(C(=O)c3cc4cccc(C(N)=O)c4o3)CC2)sc2c(N3CCOCC3)nc(-c3cccc4[nH]ncc34)nc12`, the concentration for half-maximal inhibition (IC50) in experiment [3] is 3300 nM; in experiment [4], 800 nM; in [5], over 10000 nM; in experiment [1], 42.4 nM; in experiment [2] it was 168 nM; in experiment [6] it was 3320 nM. Also, the IC50 in experiment [7] came to 890 nM.

For `Cc1c(CN2CCN(C(=O)c3cc(Cc4n[nH]c(=O)c5ccccc45)ccc3F)CC2)sc2c(N3CCOCC3)nc(-c3cnc(N)nc3)nc12`, the IC50 in [8] is 53 nM; in [3], 1300 nM; in experiment [9], over 100000 nM; in experiment [4] it was 410 nM; in [5], 1080 nM; in [10] it was 6.8 nM. Further, the IC50 in [1] was 1.5 nM; in experiment [2] it was 2 nM; in experiment [6] it was 920 nM; in [12], 50 nM; in experiment [13], 25 nM; in experiment [7], 310 nM. This compound also gave an IC50 in experiment [14] of 0.89 nM. Moreover, the inhibition in vivo at 20 mg/kg in experiment [11] was 56.4%.

Regarding `Cc1c(CN2CCN(C(=O)c3cc4cccc(C(N)=O)c4o3)CC2)sc2c(N3CCOCC3)nc(-c3ccc(N)nc3)nc12`, the IC50 in experiment [1] is 1.9 nM; in experiment [2] it was 14 nM.

For the compound `Cc1c(CN2CCN(C(=O)c3cc4cccc(C(N)=O)c4o3)CC2)sc2c(N3CCOCC3)nc(-c3ccc(N)c(F)c3)nc12`, the IC50 was over 10000 nM in experiment [3]; 3860 nM in experiment [4]; over 10000 nM in experiment [5]; 9.18 nM in experiment [1]; 1180 nM in experiment [2]; over 10000 nM in experiment [6]. Also, the IC50 in experiment [7] stood at 2320 nM.

For the compound `Cc1c(CN2CCN(C(=O)c3cc4cccc(C(N)=O)c4o3)CC2)sc2c(N3CCOCC3)nc(-c3cnc(N)cc3C(F)(F)F)nc12`, the IC50 worked out at 3170 nM in experiment [3]; 500 nM in experiment [4]; 1630 nM in [5]; 101 nM in experiment [1]; 2.3 nM in experiment [2]; 3370 nM in experiment [6]. In addition, the IC50 in experiment [7] is 690 nM.

Take `Cc1c(CN2CCN(C(=O)c3cc4cccc(C(N)=O)c4o3)CC2)sc2c(N3CCOCC3)nc(-c3cnc(N)nc3)nc12`: the IC50 was 43 nM in [8]; 920 nM in experiment [3]; over 100000 nM in experiment [9]; 290 nM in [4]; 1020 nM in [5]; 2.7 nM in [10]. Moreover, the 50% inhibitory concentration (IC50) in experiment [1] is 0.91 nM; in experiment [2] it was 1.5 nM; in experiment [6], 880 nM; in [12] it was 12 nM; in experiment [13], 73 nM; in experiment [7] it was 280 nM. Further, the IC50 is 0.92 nM in experiment [14] and over 30000 nM in [15]. Also, the inhibition in vivo at 20 mg/kg in experiment [11] was found to be 48.8%.

`Cc1c(CN2CCN(C(=O)c3cc4cccc(C(N)=O)c4o3)CC2)sc2c(N3CCOCC3)nc(-c3ccc(N)cc3F)nc12` displayed an IC50 in experiment [1] of 40.1 nM.

For the compound `NC(=O)c1cccc2cc(C(=O)N3CCN(Cc4cc5nc(-c6cnc(N)nc6)nc(N6CCOCC6)c5o4)CC3)oc12`, the IC50 turned out to be 69 nM in experiment [8]; 4.3 nM in experiment [10]; 2.97 nM in experiment [1]; 0.51 nM in [2]; 216 nM in [12]; 141 nM in [13]. The compound also gave an IC50 in [14] of 1.34 nM.

As for `Cc1c(CN2CCN(C(=O)c3cc4cccc(C(N)=O)c4o3)CC2)sc2c(N3CCOCC3)nc(-c3ccc(N)cc3)nc12`, the IC50 in [3] was 7170 nM; in [4] it was 4580 nM; in experiment [5] it was 9260 nM; in experiment [1], 22.6 nM; in [2], 319 nM; in [6], 7980 nM. The IC50 in experiment [7] came out at 3970 nM.

Turning to `NC(=O)c1cccc2cc(C(=O)N3CCN(Cc4cc5nc(-c6cnc(N)nc6)nc(N6CCOCC6)c5s4)CC3)oc12`, the IC50 is 11 nM in experiment [8]; 1.8 nM in experiment [10]; 1.98 nM in [1]; 0.6 nM in experiment [2]; 23 nM in experiment [12]; 31 nM in experiment [13]. The compound also had an IC50 in experiment [14] of 1.19 nM.

In the case of `Cc1c(CN2CCN(C(=O)c3cc4cccc(C(N)=O)c4o3)CC2)sc2c(N3CCOCC3)nc(-c3ccc4cn[nH]c4c3)nc12`, the IC50 in experiment [3] was over 10000 nM; in [4] it was 3570 nM; in [5] it was over 10000 nM; in experiment [1], 91.5 nM; in experiment [2], 3810 nM; in [6] it was over 10000 nM. Besides, in experiment [7], the IC50 was 5070 nM.

Take `Cc1c(CN2CCN(C(=O)c3cc(Cc4n[nH]c(=O)c5ccccc45)ccc3F)CC2)sc2c(N3CCOCC3)nc(-c3cnc(N)cc3C(F)(F)F)nc12`: the IC50 in [3] was determined as 3600 nM; in experiment [4] it was 1080 nM; in experiment [5], 2650 nM; in experiment [1] it was 197 nM; in experiment [2], 7 nM; in [6], 7230 nM. Moreover, in experiment [7], the IC50 was determined as 690 nM.

Regarding `Cc1c(CN2CCN(C(=O)[C@H](C)O)CC2)sc2c(N3CCOCC3)nc(-c3cnc(N)nc3)nc12` [APITOLISIB], the IC50 in [3] was 2460 nM; in [4], 3210 nM; in [5], 1670 nM; in experiment [6], 1720 nM; in experiment [7], 1110 nM. For the same compound, the inhibition in vivo at 27.5 mg/kg in [16] came out at 38%; in experiment [17], 45.9%.
